The values that follow come from patent publication US20180140679A1, “MODULATION OF AXL RECEPTOR ACTIVITY IN COMBINATION WITH CYTOREDUCTIVE THERAPY” (THE BOARD OF TRUSTEES OF THE LELAND STANFORD JUNIOR …, priority 2016, published 2018).

The test system of test [1] is ATM, ATR, CHK1, CHK2 and RPA32 in ovarian cancer cells. Nature of the test: Western blot of DNA damage response components in ovarian cancer cells. Format: cell-based. The note with it: low serum (0.1% FBS). The text has this: (§1) To further understand this relationship, we performed a reverse phase protein array (RPPA) on shAxl cell lines and wild-type cell lines treated with MYD1-72 Fc. […] In addition, we performed western blot analysis to examine expression levels of classical DNA damage response components, including total and phosphorylated ATM, ATR, CHK1, CHK2 and RPA32 (FIG. 5B) at four time points post MYD1-72 treatment.
(§2) Cell lysates subjected to sodium dodecyl sulfate polyacrylamide gel electrophoresis followed by transfer to nitrocellulose membrane. The membranes were then probed with primary antibodies against total Axl (AF154, R&D Systems, INC., Minneapolis, Minn.), phospho-Axl (T702; #5724, CST, Danvers, Mass.), total Akt (#4691 CST, Danvers, Mass.), phosphor-Akt (#4060, CST, Danvers, Mass.), anti-MERTK (#ab52968, Abcam, Cambridge, Mass.), phospho-MERTK (#ab14921 Abcam, Cambridge, Mass.), anti-Tyro3 (#5585, CST, Danvers, Mass.), phospho-Tyro3 (#orb186274, Biorbyt LLC, Berkely, Calif.), Bcl-2 Family Antibody Sampler Kit (#9934, CST, Danvers, Mass.), anti-Chk2 (#sc-5278, Santa Cruz Biotech, INC., Santa Cruz, Calif.), anti-XRCC1 (#2735, CST, Danvers, Mass.), anti-γH2AX (Merck Millipore #05636, Darmstadt, Germany), anti-phospho-ATM (#ab81292, Abcam, Cambridge, Mass.), anti-ATM (#ab78, Abcam, Cambridge, Mass.), anti phospho-ATR (#2853, CST, Danvers, Mass.), anti-ATR (#2790, CST, Danvers, Mass.), anti-Phospho Chk1 (#12302, CST, Danvers, Mass.), anti-Phospho Chk2 (#2197, CST, Danvers, Mass.) and anti-RPA32 (#2208, CST, Danvers, Mass.) at 4° C. overnight. The blots were then washed and probed with HRP conjugated anti-goat (#sc-2020, Santa Cruz Biotech, INC., Santa Cruz, Calif.), or HRP conjugated anti-rabbit (#A16110, Thermo Fisher Scientific, Walthan, Mass.) as appropriate. The blots were developed with Bio-Rad Western C developing reagent (#170-5060 Bio-Rad, Hercules, Calif.) and visualized with Chemidoc digital imager (#1708280, Bio-Rad, Hercules, Calif.).
Background: A western blot detects proteins with antibodies after separation by electrophoresis.

Test [2] relates to OVCAR8. In words: OVCAR8 intraperitoneal ovarian cancer model. Format: in vivo, mouse. The following applies: MYD1-72 Fc 1 mg/kg daily, doxorubicin 2 mg/kg twice weekly, three weeks. The source says:
(§3) At this time, several mice were sacrificed at random to ensure engraftment of diffuse metastatic disease, a hallmark of the human condition. […] After three weeks of treatment, mice were sacrificed and tumor burden was quantified both by counting the number of visible lesions, as well as excising and weighing all diseased tissue.
(§4) Treatment was initiated four days post-surgery.

Test [3] concerns skov3.ip. Nature of the test: skov3.ip intraperitoneal ovarian cancer model. The note with it: MYD1-72 Fc 1 mg/kg daily, doxorubicin 2 mg/kg twice weekly, three weeks. Format: in vivo, mouse xenograft.
Description: as §3, §4

Test [4] has as its system ovarian cancer cells. In words: EdU labeling and γH2AX co-staining. It counts as cell-based. The method, then: (§5) 10,000 cells were plated in each well of glass chamber slide and allowed to attach overnight. […] Cells were then washed with PBS and fixed with 4% paraformaldehyde, lysed for 10 minutes and blocked with a 2% BSA and 0.1% PBS-Triton-X solution for 1 hour. After washes in PBS-Triton-X, cells were incubated with mouse anti-[…]H2AX, (#05-636, Merck Millipore, Darmstadt, Germany); rabbit anti-RAD51, (#PC130-100 UL Merck Millipore, Darmstadt, Germany); rabbit anti-53BP1, (# ab36823, Abcam, Cambridge, Mass.) overnight in a humidified chamber at 4 degrees. Cells were washed with PBS and incubated in secondary antibody anti-rabbit FITC (#65-6111 Thermo Fisher Scientific, Walthan, Mass. or anti-mouse FITC, (#62-6511, Thermo Fisher Scientific, Walthan, Mass.) for 1 hour at 37 degrees and counterstained with Prolong Mounting medium with DAPI. Positive foci intensity were calculated using imagine software Metamorph. EdU (5-ethynyl-2′-deoxyuridine) labeling and co-staining were carried out according to the manufacturer's instructions (#C10637, Thermo Fisher Scientific, Walthan, Mass.). γH2AX staining was performed as described above.
(§6) Cells were visualized using a Leica DM6000 B microscope with Leica Application Suite X software (Wetzlar, Germany). EdU was used at a concentration of 10 μM. EdU labeling was carried out for 1 hour in all cases, for conditions including drug treatments EdU was added during the last hour of treatment. Experiments were carried out in triplicate. Quantification of staining: Positive γH2AX staining refers to cells with over eight foci and pan-nuclear staining. For hydroxyurea (Hu) treated groups, γH2AX positive cells refers to cells where a pan-nuclear staining pattern (typically associated with replication stress) was observed.

For test [5], the system named is ovarian cancer cells. In words: Immunofluorescence of DNA damage foci in ovarian cancer cells. Format: cell-based. The method, then: as §5, §6
The subject of test [6] is wild-type cell lines. Nature of the test: Reverse phase protein array (RPPA). Format: cell-based. The note with it: continuously for seven days in low serum (1% FBS). Here is the method:
as §1
The RPPA was performed by MD Anderson as described.

Test [7] deals with 4T1 luciferase cells. Format: in vivo.
Description: In this model, cells orthotopically implanted in the mammary fat pad generate primary masses that metastasize to the lungs.
Comparison of MYD1-72 Fc with clinical Axl. TKIs There are currently no FDA approved drugs targeting Axl, though several small molecule kinase inhibitors are undergoing clinical trials. BerGenBio's BGB324 (previously Rigel's R428) is the most advanced of these compounds, and the first to be developed prospectively as an Axl inhibitor. […] Furthermore, since TKI's and biologics are fundamentally very different, as are their mechanisms of action, a direct comparison would provide valuable insights into the potential of distinct therapeutic intervention strategies. […] Cells were implanted orthotopically in the mammary fat pad, and primary tumors were allowed to establish prior to treatment. […] This dose for the TKIs was chosen as significant activity has been previously reported at equivalent concentrations.
as §4

Test [8] relates to phosphorylation of Axl, Mer, Tyro3, and downstream Akt signaling in OVCAR8 cells. In words: Western blot of TAM receptor and Akt phosphorylation in OVCAR8 cells. It counts as cell-based, human.
Description: as §2

The test system of test [9] is Axl and FLT3 phosphorylation in AML cells. Nature of the test: Western blot of Axl and FLT3 phosphorylation in AML cells. It counts as cell-based, human.
Description: as §2

Test [10] concerns LM-P orthotopic pancreatic cancer. In words: LM-P orthotopic pancreatic cancer model. The note with it: immunohistochemistry.
Description: LMP cells derived from the KRAS/p53 metastatic mouse model were implanted subcutaneously into the flanks of mice and allowed to grow until they reached ˜500 mm^3 in size.
To establish orthotopic tumors, mice harboring subcutaneous tumors were sacrificed and tumors were isolated and cut into small fragments. Laparotomies were then performed and a tumor fragment was secured to the tail of the pancreas.
All procedures involving animals and their care and use were approved by the Institutional Animal Care and Usage Committee of Stanford University. For all in vivo studies, six week old, female nude (nu/nu) mice (Jackson Laboratory, Bar Harbor, Me.) were used. In all studies, animals displaying signs of morbidity were removed from the study immediately. […] Treatment was initiated four days post-inoculation for both studies. […] BGB324 (Selleckchem LLC, Houston, Tex.) and Foretinib (MedChem, Monmouth Junction, N.J.). Small molecules were administered twice daily via oral gavage. […] The orthotropic LM-P pancreatic adenocarcinoma model (a gift from Dr. Edgar Engleman at Stanford University, Stanford, Calif.) was established as previously described. Briefly, 1×10^6 cells were injected subcutaneously into the flanks of nude mice and grown for 2-3 weeks until they reached 500 mm^3. […]
Test [11] concerns the target T1, mouse Gas6 (Mus musculus, UniProt Q61592).
T1 sequence (Q61592 28-674): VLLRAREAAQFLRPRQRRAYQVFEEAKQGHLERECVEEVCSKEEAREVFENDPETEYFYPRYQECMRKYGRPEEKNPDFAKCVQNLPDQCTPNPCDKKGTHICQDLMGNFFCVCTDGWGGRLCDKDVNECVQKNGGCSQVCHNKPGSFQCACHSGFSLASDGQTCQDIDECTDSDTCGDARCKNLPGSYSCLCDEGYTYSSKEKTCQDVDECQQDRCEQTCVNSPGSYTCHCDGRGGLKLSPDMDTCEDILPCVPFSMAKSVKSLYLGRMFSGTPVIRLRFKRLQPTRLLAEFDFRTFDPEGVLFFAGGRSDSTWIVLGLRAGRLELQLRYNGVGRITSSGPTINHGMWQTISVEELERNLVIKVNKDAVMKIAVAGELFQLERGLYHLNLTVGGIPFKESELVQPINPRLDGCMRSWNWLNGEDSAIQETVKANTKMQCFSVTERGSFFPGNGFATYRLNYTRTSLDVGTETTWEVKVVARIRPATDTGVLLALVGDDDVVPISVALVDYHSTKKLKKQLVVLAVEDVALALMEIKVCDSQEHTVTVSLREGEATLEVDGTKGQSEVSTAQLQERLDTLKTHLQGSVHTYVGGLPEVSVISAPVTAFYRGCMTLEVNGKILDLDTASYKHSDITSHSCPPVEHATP
In words: Kinetic Exclusion Assay (KinExA), Gas6-Axl binding, mouse Gas6. The method, then:
(§7) Equilibrium binding and association rate constants for all Gas6-Axl interactions were measured on a KinExA3200 instrument (Sapidyne Instruments Inc. Boise, Id.) as previously described. For equilibrium binding studies, three independent titrations were completed for each Axl Ig1 or Axl Fc fusion unless otherwise noted. […] After the appropriate incubation time, reactions were flowed over MYD1 Fc coated beads and captured free Gas6 was probed using an anti-6×HIS Dylight 649 antibody (#200-343-382, Rockland Immunochemicals Inc., Pottstown, Pa.). Each sample was measured twice and data from the three independent equilibrium binding experiments were globally analyzed using n-curve analysis in the KinExA Pro 3.6.2 software (Sapidyne Instruments Inc. Boise, Id.) to obtain the Kd value. To analyze the association rate of the interactions, the direct inject method was used. For these experiments, 1 μM Axl was serially diluted 1:2.5, and equal volumes of each Axl sample and 500 nM Gas6 were briefly mixed and flowed over the capture beads. Free Gas6 was detected as described and the data was fit using the KinExA Pro 3.6.2 software to obtain the association rate (kon) of the interaction. The dissociation rate (koff) was calculated as the product of the Kd and the kon.
On the technique in general: In KinExA the mixture passes briefly over coated beads that capture the unbound partner.

For test [12], the target named is T2, human Gas6 (Homo sapiens, UniProt Q14393).
T2 sequence (Q14393 31-678): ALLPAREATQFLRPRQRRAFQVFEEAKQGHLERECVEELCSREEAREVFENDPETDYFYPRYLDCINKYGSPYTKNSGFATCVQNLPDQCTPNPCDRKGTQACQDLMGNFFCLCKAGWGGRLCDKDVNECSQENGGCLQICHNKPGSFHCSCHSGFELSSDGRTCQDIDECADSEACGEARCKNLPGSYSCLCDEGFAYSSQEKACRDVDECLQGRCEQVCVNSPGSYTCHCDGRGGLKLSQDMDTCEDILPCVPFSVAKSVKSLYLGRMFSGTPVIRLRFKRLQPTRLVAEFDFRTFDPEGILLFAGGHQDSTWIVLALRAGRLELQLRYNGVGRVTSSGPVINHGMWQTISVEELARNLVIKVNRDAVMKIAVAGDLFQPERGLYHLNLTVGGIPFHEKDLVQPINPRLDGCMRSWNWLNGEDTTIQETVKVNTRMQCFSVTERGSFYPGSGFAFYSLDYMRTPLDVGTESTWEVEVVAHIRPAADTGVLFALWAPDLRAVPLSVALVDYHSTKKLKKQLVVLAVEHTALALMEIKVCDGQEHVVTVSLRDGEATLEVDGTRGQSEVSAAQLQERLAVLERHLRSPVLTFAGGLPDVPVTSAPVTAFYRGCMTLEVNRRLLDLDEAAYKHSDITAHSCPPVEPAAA
Nature of the test: Kinetic Exclusion Assay (KinExA), Gas6-Axl binding, human Gas6. Here is the method: as §7

With “MYD1-72 Fc: Fc fusion of the second generation high-affinity Axl decoy receptor MYD1-72 (Gly32Ser, Ala72Val, Asp87Gly, Val92Ala, Gly127Arg)”, the phospho-RPA32 level result in test [1] is listed as “Elevated phospho-RPA32 level”. For the same molecule, in test [1] (four time points), the “phospho-ATM and phospho-ATR” value is “significant induction of phospho-ATM and phospho-ATR at early time points”; the “phosphorylation of CHK1 and CHK2” value was “increased phosphorylation of both CHK1 and CHK2”. Also, the “reduction of tumor burden” value in test [2] came to 95%. For the same molecule, the “decrease in tumor burden (by weight) vs controls” value in [3] is given as 51%. The “γH2AX positive cells in combination with hydroxyurea” value in test [4] (hydroxyurea in the presence and absence of MYD1-72 Fc) is recorded as “no additive effect was observed”. In addition, in test [4] (treated group), the “non-S phase cells (EdU negative) positive for γH2AX” value was 7% and the “γH2AX positive cells that were also in S phase/EdU positive” value was determined as 85%. Besides, the γH2AX foci entry in test [5] (complete media, 0.1 μg or 10 μg) was “showed no changes across treatments”. In test [5] (serum-limited conditions), the “53BP1 and RAD51 foci” value is “increased the numbers of both 53BP1 and RAD51 foci”. Also, the “number of γH2AX foci” value in test [5] (serum-limited conditions, vs untreated controls) is listed as “significant increase in the number of γH2AX foci”. The “XRCC1/Chk2 and BAX/BID expression” value in test [6] is recorded as “highly upregulated”. Besides, the lung metastatic disease entry in [7] (0.5 mg/kg iv twice a week, three weeks) is recorded as “significantly less metastatic disease than those treated with MYD1 Fc”. Besides, the “reduction in lung metastases compared to vehicle treated mice” value in test [7] (MYD1-72 Fc 1 mg/kg daily, TKIs 12.5 mg/kg twice daily, ex vivo bioluminescent imaging) is reported as 71%. Moreover, in test [7] (MYD1-72 Fc 1 mg/kg daily, TKIs 12.5 mg/kg twice daily, three weeks, vs control), the “size of primary tumors” value is on record as “significantly reduced the size of primary tumors”. Also, the “γH2AX positive cells in primary tumor” value in test [7] (immunohistochemistry) was “significantly more γH2AX positive cells compared to all other treatment groups”. Moreover, in test [8], the “pAxl and pAkt levels” value is “significantly reduced pAxl and pAkt levels”; the “pMer and pTyro3 levels” value was “pMer and pTyro3 remained relatively unchanged”. Besides, the “Axl and FLT3 phosphorylation” value in [9] is “inhibited Axl and FLT3 phosphorylation”. In test [10], the “γH2AX staining (DNA damage) in primary tumor” value was “small effect on DNA damage”.

B1: MYD1 Ig1: first generation high affinity Axl Ig1 variant containing four mutations that conferred improved binding to Gas6 (protein)
chain: APRGTQAEESPFVSNPGNITGARGLTGTLRCQLQVQGEPPEVHWLRDGQILELADSTQTQVPLGEDEQGDWIVASQLRITSLQLSDTGQYQCLVFLGHQTFVSQPGYVRLEGLP
modifications: left off: small tags and cut ends
What is called Kd is a measure of binding affinity in units of concentration. On to B1, for which the “binding to mouse Gas6” value in [11] is listed as “no increase in binding to mouse Gas6”. In addition, the Kd in test [12] (Axl Ig1 variants, read-out: Kd hGas6) stood at 2.7 pM. In addition, the koff in test [12] (calculated as the product of the Kd and the kon) is listed as 4.0 10^−5 s^−1. The kon in test [12] (direct inject method) is recorded as 1.6 10^7 M^−1 s^−1.
